Assay results reported in PubChem BioAssay AID540306 (Sanford-Burnham Center for Chemical Genomics, 2011).
Active and inactive are the calls of the source.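 How the source made its calls: active means mean EC50 of 20 µM or lower; inactive means the rest.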

Molecular target: CHO-CHOP luciferase reporter, UPR apoptotic arm activation
Assay: PERK-eIF2a-CHOP apoptotic UPR arm activators, SAR follow-up, counter-screen for UPR adaptive arm activator project, CHO-CHOP cells, luminescence (AID 540306)

EC50	Structure (SMILES)
> 80 µM (inactive)	Cc1cc(-c2ccccc2)nc(Nc2nc(C)c3ccccc3n2)n1
> 80 µM (inactive)	Cc1nc(Nc2ncccn2)nc2ccccc12
> 80 µM (inactive)	Cc1nc(Nc2nc(-c3ccccc3)cc(=O)[nH]2)nc2ccccc12
inactive	Cc1nc(Nc2nccc(-c3ccccc3)n2)nc2ccccc12
> 80 µM (inactive)	Cc1ccnc(Nc2ncccn2)n1
> 80 µM (inactive)	COc1cc(-c2ccccc2)nc(Nc2nc(C)c3ccccc3n2)n1
> 80 µM (inactive)	Cc1cc(=O)[nH]c(Nc2nc(C)c3ccccc3n2)n1
> 80 µM (inactive)	Cc1ccnc(Nc2nc(-c3ccccc3)cc(=O)[nH]2)n1
